Reference: ChEMBL document CHEMBL4665895, “Covalent Bridging of Corilagin Improves Antiferroptosis Activity: Comparison with 1,3,6-Tri-O-galloyl-β-d-glucopyranose” (ACS Med Chem Lett, 2020)
Activity calls are given as the source filed them. The rule behind the calls is not given here.

Columns and labels:
[1] = Antioxidant activity assessed as ferric ion reducing activity using FeCl3.H2O and TPTZ incubated for 30 mins by FRAP assay; format: functional
[2] = Antioxidant activity assessed as DPPH free radical scavenging activity after 5 mins by microplate reader based assay; format: functional
[3] = Antioxidant activity assessed as compound-DPPH adduct formation with covalent bridging by UHPLC-ESI-Q-TOF-MS analysis; format: functional
[4] = Anti-ferroptosis activity against erastin-induced ferroptosis in Spargue-Dawley rat bmMSCs cells assessed as cell viability at 4.7 uM after 1 hr by AnnexinV-FITC/propidium iodide staining based flow cytometry analysis (reference value: 65.9%); format: functional; conditions: Bone marrow cell, read-out: Activity
Bone marrow cell [5] = assay: Anti-ferroptosis activity against erastin-induced ferroptosis in Sprague-Dawley rat bmMSC cells assessed as increase in cell viability at 0.47 to 4.7 uM preincubated for 12 hrs followed by compound addition and measured after 12 hrs by CCK8 assay; format: functional, cell-based; conditions: dose microM 0.47-4.7, time 12.0 hrs
[6] = Anti-ferroptosis activity against erastin-induced ferroptosis in Sprague-Dawley rat bmMSC cells assessed as cellular death at 4.7 uM after 1 hr by AnnexinV-FITC/propidium iodide staining-based flow cytometric analysis (reference value: 3.73%); format: functional, Bone marrow cell
[7] = Metal chelating activity assessed as Fe2+-compound complex formation incubated for 5 mins by colorimetry
[8] = Metal chelating activity assessed as Fe2+-compound complex formation by measuring red shift by UV-visible spectrophotometry
Bone marrow cell [9] = assay: Anti-ferroptosis activity against erastin-induced ferroptosis in Sprague-Dawley rat bmMSC cells assessed as inhibition of lipid peroxidation at 3 ug/ml preincubated for 12 hrs followed by compound addition and measured after 12 hrs by C11-Bodipy fluorescent dye based microscopic analysis; format: functional; conditions: dose 3.0 µg/ml
[10] = Antioxidant activity in pH 4.5 phosphate buffer assessed as PTIO radical scavenging activity after 1 hr by microplate reader based assay; format: functional
[11] = Antioxidant activity in pH 7.4 phosphate buffer assessed as PTIO radical scavenging activity after 1 hr by microplate reader based assay; format: functional
[12] = Potency index, ratio of trolox IC50 to test compound IC50 for antioxidant activity assessed as DPPH radical scavenging activity; format: functional
[13] = Anti-ferroptosis activity against erastin-induced ferroptosis in Sprague-Dawley rat bmMSC cells assessed as late cell death at 4.7 uM after 1 hr by AnnexinV-FITC/propidium iodide staining-based flow cytometric analysis (reference value: 19.9%); format: functional, Bone marrow cell
[14] = Anti-ferroptosis activity against erastin-induced ferroptosis in Sprague-Dawley rat bmMSC cells assessed as early cell death at 4.7 uM after 1 hr by AnnexinV-FITC/propidium iodide staining-based flow cytometric analysis (reference value: 10.4%); format: functional, Bone marrow cell

SMILES	IC50 [1]	inhibition [1]	IC50 [2]	inhibition [2]	Activity [3]	viability at 4.7 µM [4]	Activity (Bone marrow cell [5])	Activity [6]	IC50 [7]	inhibition [7]	Activity [8]	Activity (Bone marrow cell [9])	IC50 [10]	inhibition [10]	IC50 [11]	inhibition [11]	Ratio IC50 [12]	Activity [13]	Activity [14]
O=C(O[C@@H]1O[C@@H]2COC(=O)c3cc(O)c(O)c(O)c3-c3c(cc(O)c(O)c3O)C(=O)O[C@H]([C@H]1O)[C@@H]2O)c1cc(O)c(O)c(O)c1 [CORILAGIN]	12 µM	Dose-dependent effect	1 µM	Dose-dependent effect	Active	80.2%	Active	2.7%	7 µM	Dose-dependent effect	Active	Active	204 µM	Dose-dependent effect	94 µM	Dose-dependent effect	8	7.8%	9.2%
O=C(OC[C@H]1O[C@@H](OC(=O)c2cc(O)c(O)c(O)c2)[C@H](O)[C@@H](OC(=O)c2cc(O)c(O)c(O)c2)[C@@H]1O)c1cc(O)c(O)c(O)c1	35 µM	Dose-dependent effect	1 µM	Dose-dependent effect	Active	78.4%	Active	2.2%	11 µM	Dose-dependent effect	Active	Active	290 µM	Dose-dependent effect	115 µM	Dose-dependent effect	6.5	9%	10.3%
O=C([O-])CC(O)(CC(=O)[O-])C(=O)[O-].[Na+].[Na+].[Na+] [SODIUM CITRATE]	–	–	–	–	–	–	–	–	14 µM	–	–	–	–	–	–	–	–	–	–
Cc1c(C)c2c(c(C)c1O)CCC(C)(C(=O)O)O2 (racemic) [TROLOX]	81 µM	–	7 µM	–	–	–	–	–	–	–	–	–	289 µM	–	445 µM	–	–	–	–
